Measurements as given in patent US8987467B2, “Substituted pyrazole azetidines as sphingosine receptor modulators” (Allergan, Inc., priority 2013, dated 2015).

Molecular target: T1, human S1P1 receptor (Homo sapiens, UniProt P21453)
T1 construct: expressed in transfected cells; membranes used
Assay: GTP γ35S binding assay for S1P1 activity
Assay type: biochemical
Conditions: membranes of cells stably expressing the S1P1 receptor; test concentrations 0.08 to 5,000 nM; 30 min at 25° C.; read-out: S1P1 EC50 (Activity potency: S1P1 receptor from GTP γ35S)
Description: Compounds were tested for S1P1 activity using the GTP γ^35S binding assay. These compounds may be assessed for their ability to activate or block activation of the human S1P1 receptor in cells stably expressing the S1P1 receptor.
GTP γ^35S binding was measured in the medium containing (mM) HEPES 25, pH 7.4, MgCl2 10, NaCl 100, dithiothreitol 0.5, digitonin 0.003%, 0.2 nM GTP γ^355, and 5 μg membrane protein in a volume of 150 μl. Test compounds were included in the concentration range from 0.08 to 5,000 nM unless indicated otherwise. Membranes were incubated with 100 μM 5′-adenylylimidodiphosphate for 30 min, and subsequently with 10 μM GDP for 10 min on ice. Drug solutions and membrane were mixed, and then reactions were initiated by adding GTP γ^355 and continued for 30 min at 25° C. Reaction mixtures were filtered over Whatman GF/B filters under vacuum, and washed three times with 3 mL of ice-cold buffer (HEPES 25, pH 7.4, MgCl2 10 and NaCl 100). Filters were dried and mixed with scintillant, and counted for ^35S activity using a β-counter. Agonist-induced GTP γ^355 binding was obtained by subtracting that in the absence of agonist. Binding data were analyzed using a non-linear regression method. In case of antagonist assay, the reaction mixture contained 10 nM S1P in the presence of test antagonist at concentrations ranging from 0.08 to 5000 nM.

T1 sequence (P21453 whole entry): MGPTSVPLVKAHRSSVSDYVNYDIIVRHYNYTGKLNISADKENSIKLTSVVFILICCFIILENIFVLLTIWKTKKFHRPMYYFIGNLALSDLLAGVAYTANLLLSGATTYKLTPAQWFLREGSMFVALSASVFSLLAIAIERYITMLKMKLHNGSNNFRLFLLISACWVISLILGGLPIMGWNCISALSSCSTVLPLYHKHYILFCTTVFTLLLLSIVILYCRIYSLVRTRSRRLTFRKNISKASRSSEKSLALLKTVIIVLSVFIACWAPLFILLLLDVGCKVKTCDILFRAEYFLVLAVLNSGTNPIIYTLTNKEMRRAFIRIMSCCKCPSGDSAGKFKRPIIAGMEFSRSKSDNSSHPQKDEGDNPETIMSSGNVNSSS

| EC50 [nM] | Structure (SMILES) |
| --- | --- |
| 252 | CCN1N=C(c2nc(-c3ccc(CN4CC(C(=O)O)C4)cc3)no2)CC1c1ccccc1 (stereo not shown) [Compound 1, 1-{4-[5-(1-ethyl-5-phenyl-4,5-dihydro-1H-pyrazol-3-yl)-1,2,4-oxadiazol-3-yl]benzyl}azetidine-3-carboxylic acid] |
| 51 | CCN1N=C(c2nc(-c3cc(F)c(CN4CC(C(=O)O)C4)c(F)c3)no2)CC1c1ccccc1 (stereo not shown) [Compound 4, 1-{4-[5-(1-ethyl-5-phenyl-4,5-dihydro-1H-pyrazol-3-yl)-1,2,4-oxadiazol-3-yl]-2,6-difluorobenzyl}azetidine-3-carboxylic acid] |
| 24 | CCc1cc(-c2noc(C3=NN(CC)C(c4ccccc4)C3)n2)ccc1CN1CC(C(=O)O)C1 (stereo not shown) [Compound 5, 1-{2-ethyl-4-[5-(1-ethyl-5-phenyl-4,5-dihydro-1H-pyrazol-3-yl)-1,2,4-oxadiazol-3-yl]benzyl}azetidine-3-carboxylic acid] |
| 75 | CCCN1N=C(c2nc(-c3ccc(CN4CC(C(=O)O)C4)cc3)no2)CC1c1ccccc1 (stereo not shown) [Compound 6, 1-{4-[5-(5-phenyl-1-propyl-4,5-dihydro-1H-pyrazol-3-yl)-1,2,4-oxadiazol-3-yl]benzyl}azetidine-3-carboxylic acid] |
